Entries after “also recorded” stand apart in the source; their conditions may differ. Where two headings read alike, the source gives them in different places.
Key:
[1] = tested on: MES-induced seizures in mice; assay: Maximal electroshock seizure (MES) test; type: in vivo; settings: for protection in MES screening / responders at 100 mg/kg: 100 mg/kg i.p., 0.5 h; for protection in MES screening: four mice; for responders at 100 mg/kg / ED50: Mus musculus, ip; for responders at 100 mg/kg: read-out: MES screening: number of mice protected/number of mice tested (converted); for ED50: mice, pretreatment time 0.5 h, (95% confidence limits)
Procedure, shortened: (§1)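 Adult male Albino Swiss mice (22–26 g), compounds suspended in 1% aqueous Tween 80, single i.p. injection, tested 0.5 h post-dose. Screening at 100 mg/kg with four mice per group; ED50 from 3–4 groups of eight. PI = TD50 (chimney test) / ED50.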

[2] = tested on: 6 Hz (32 mA) seizures in mice; assay: 6 Hz (32 mA) psychomotor seizure model; type: in vivo; settings: Mus musculus, ip; for responders at 100 mg/kg: 100 mg/kg i.p., 0.5 h; for ED50: mice, pretreatment time 0.5 h, (95% confidence limits)
Procedure, shortened: as §1

[3] = tested on: ivPTZ seizure threshold in mice; assay: Timed ivPTZ seizure threshold test; type: in vivo; settings: 50 mg/kg i.p., 0.5 h before test; for increase of threshold for generalized clonus with loss of righting reflex / increase of threshold for the first myoclonic twitch: vs control
Description: In studies assessing the acute effect of compounds 53 and 60 on the ivPTZ seizure threshold and neuromuscular strength, compounds 53 and 60 was suspended in a 1% solution of Tween 80 and administered i.p., at a dose of 10 mL/kg body weight. Each experimental group consisted of 9–12 animals (ivPTZ seizure threshold test) or 9−10 animals (grip strength test). The timed ivPTZ test was employed to evaluate the acute effect of compounds 53 and 60 on the seizure thresholds for (1) the first myoclonic twitch, (2) generalized clonic seizure with loss of righting reflex, and (3) forelimb tonus. The experimental procedure of the timed ivPTZ test was described in detail elsewhere. The acute effect of compounds 53 and 60 on neuromuscular strength was quantified using the grip-strength apparatus (BIOSEB, Chaville, France) according to the method that is described elsewhere. The results are depicted in Figure 2 (ivPTZ seizure threshold test, see Section 3 Results and Discussion) and Figure 3 (grip strength test, see Section 3 Results and Discussion).
The timed ivPTZ test was employed to further evaluate the effects of compounds 53 and 60 on seizure susceptibility in mice. The ivPTZ seizure test is an extremely sensitive method for assessing seizure thresholds in rodents. In this method, the threshold PTZ dose for several seizure endpoints was determined.
Figure 2 Acute effects of 53 and 60 on the threshold for the first myoclonic twitch (A), generalized clonus (B), and forelimb tonus (C) in the ivPTZ seizure threshold test in mice. Compounds 53 and 60 were administered i.p. 0.5 h before the seizure test. Control animals received vehicle only. Each experimental group consisted of 9–12 animals. Each bar represents the mean (mg/kg PTZ) + SEM. ** p < 0.01, *** p < 0.001, **** p < 0.0001 vs. the control group (Student’s t-test).

[4] = target: T1, TRPV1 (VR1) (h) (Homo sapiens, UniProt Q8NER1); assay: TRPV1 (VR1) (h) antagonist effect functional assay; type: cell-based; settings: human recombinant CHO cells, read-out: % Inhibition of control agonist response, TRPV1 (antagonist effect)
T1 construct: host or cells: CHO
Procedure, shortened: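 Commercial Eurofins radioligand binding and functional panel: [3H]GABA agonist binding for GABAA, antagonist radioligand binding for GABA transporter, cell-based calcium flux antagonist assay for human Cav1.2. TRPV1 antagonism measured in human recombinant CHO cells at 100 µM as % inhibition of control agonist response.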

[5] = tested on: hepatoma HepG2 cell line; assay: Hepatotoxicity, HepG2 viability (MTS); type: cell-based; settings: 72 h treatment
Description: Figure 7 The effect of 53, 60, and 62, cytostatic drug doxorubicin (DX) and the mitochondrial toxin CCCP on the hepatoma HepG2 cell line viability after 72 h of incubation at 37 °C, 5% CO2. The data were analyzed with one-way ANOVA, followed by Bonferroni’s Comparison Test (Graph Pad Prism 8.0.1 software, San Diego, CA, USA)): ** p < 0.01, **** p < 0.0001 vs. negative control (DMSO 1% in growth media).

[6] = target: T1, TRPV1 (VR1) (h); assay: TRPV1 (VR1) (h) antagonist effect functional assay; type: cell-based; settings: human recombinant CHO cells
[7] = Metabolic stability in human liver microsomes (HLMs); settings: for remaining at 2 h: human, human liver microsomes; for Metabolic Pathway: metabolites after 120 min incubation with HLMs
[8] = four mice, read-out: protection in 6 Hz (32 mA) screening
[9] = read-out: 6 Hz (32 mA) screening: number of mice protected/number of mice tested (converted)

T1 sequence (Q8NER1 whole entry): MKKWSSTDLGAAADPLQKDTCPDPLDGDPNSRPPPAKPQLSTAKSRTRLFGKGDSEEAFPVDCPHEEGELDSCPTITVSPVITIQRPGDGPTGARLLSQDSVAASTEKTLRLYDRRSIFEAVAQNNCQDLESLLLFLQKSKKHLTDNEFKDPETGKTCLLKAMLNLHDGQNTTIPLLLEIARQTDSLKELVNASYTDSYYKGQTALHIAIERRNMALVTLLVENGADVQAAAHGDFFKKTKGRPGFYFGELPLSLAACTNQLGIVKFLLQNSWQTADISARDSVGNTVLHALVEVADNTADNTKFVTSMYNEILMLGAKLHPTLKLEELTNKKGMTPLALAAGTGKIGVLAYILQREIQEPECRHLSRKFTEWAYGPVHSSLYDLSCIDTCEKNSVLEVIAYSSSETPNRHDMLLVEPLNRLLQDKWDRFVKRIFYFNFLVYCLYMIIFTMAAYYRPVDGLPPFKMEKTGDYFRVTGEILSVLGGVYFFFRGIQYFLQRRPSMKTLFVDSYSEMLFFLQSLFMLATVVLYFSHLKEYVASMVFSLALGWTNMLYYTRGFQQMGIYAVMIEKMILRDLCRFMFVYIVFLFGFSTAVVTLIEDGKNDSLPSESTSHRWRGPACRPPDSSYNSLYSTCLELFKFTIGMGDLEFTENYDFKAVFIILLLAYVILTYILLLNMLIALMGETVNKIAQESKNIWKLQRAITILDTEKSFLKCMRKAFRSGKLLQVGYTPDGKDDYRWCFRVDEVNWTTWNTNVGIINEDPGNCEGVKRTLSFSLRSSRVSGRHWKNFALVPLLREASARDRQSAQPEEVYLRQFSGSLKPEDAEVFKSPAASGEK

Row | SMILES | protection in MES screening [1] | responders at 100 mg/kg [1] | ED50 [1] | responders at 100 mg/kg [2, 8] | responders at 100 mg/kg [2, 9] | ED50 [2] | effect on threshold for forelimb tonus [3] | increase of threshold for generalized clonus with loss of righting reflex [3] | increase of threshold for the first myoclonic twitch [3] | inhibition at 100 µM [4] | effect on HepG2 cell viability (hepatotoxicity) [5] | IC50 [6] | Kb [6] | remaining at 2 h [7] | Metabolic Pathway [7]
1 | CC(=O)NC(C(=O)N1CCN(c2cccc(OC(F)(F)F)c2)CC1)c1ccccc1 (stereo not drawn) [Compound 60, N-(2-oxo-1-phenyl-2-(4-(3-(trifluoromethoxy)phenyl)piperazin-1-yl)ethyl)acetamide] | 75% | 75% | 73.6 mg/kg | 100% | 100% | 24.6 mg/kg | devoid of any significant effects | devoid of any significant effects | ~ 20% | 110% | observed only at 100 µM | 11 µM | 1.5 µM | 88.8% | hydroxylation; also recorded: dehydrogenation
2 | CC(=O)NC(C(=O)N1CCN(c2cccc(C(F)(F)F)c2)CC1)c1ccccc1 (stereo not drawn) [Compound 53, N-(2-oxo-1-phenyl-2-(4-(3-(trifluoromethyl)phenyl)piperazin-1-yl)ethyl)acetamide] | 75% | 75% | 89.7 mg/kg | 100% | 100% | 29.9 mg/kg | did not, however, produce any significant effect | ~ 40% | ~ 50% | 128% | observed only at 100 µM | 13 µM | 1.7 µM | 95.6% | hydroxylation

Source: paper PMC9221546, “New Phenylglycinamide Derivatives with Hybrid Structure as Candidates for New Broad-Spectrum Anticonvulsants” (Cells, 2022)
